The text below walks through data of patent publication US8506950B2, “Degradable microcapsules” (ETH Zurich, priority 2008, dated 2013).

The target in experiment [1] is T1, rat luteinizing hormone receptor (rLHR) (Rattus norvegicus, UniProt P16235).
T1 construct: Full-length cDNAs encoding the LHRs of rat (r) and bovine (b) origin; expressed in transfected cells; host or cells: HEK293T, transient transfection with pLEN-rLHR
The experiment can be described thus: Intracellular cAMP in HEK293T cells transiently expressing rLHR, induced by bLH. In kind it is cell-based. Conditions: 500 ng/ml bLH, 1 h post-induction, rLHR expressed, vs non-induced cells. The method, then:
HEK293T cells were transiently transfected for constitutive bLHR or rLHR expression. 48 hours post-transfection the cells were induced by the addition of 500 ng/ml bLH. The intracellular cAMP-levels were determined 1 h post-induction. […] (□) no bLH, (▪) 500 ng/mL bLH.
Full-length cDNAs encoding the LHRs of rat (r) and bovine (b) origin were cloned under control of the strong constitutive human cytomegalovirus promoter (PCMV) as previously described [Kawate N, Tamada H, Inaba T, Sawada T, Journal of Reproduction and Development 2002; 48:8; Ulaner G A, Chuang J, Lin W, Woodbury D, Myers R V, Moyle W R, J Endocrinol 1999; 163:289-97]. The expression vectors were transiently transfected into HEK293T cells. The functionality of the expressed LHRs was determined 48 hours post-transfection by assaying the intracellular cAMP increase in response to the presence of bLH (FIG. 7). […] However, when the rLHR was expressed the detected cAMP-level increased to 29-fold level of the non-induced cells. […]
The intracellular cAMP production of cells was quantified using the cAMP Fluorescence Polarization (FP) Biotrak Immunoassay System (GE Healthcare Bio-Sciences GmbH, Otelfingen, Switzerland, Cat No. RPN3595) according to the manufacturer's protocol. The expression of firefly luciferase was determined with the Tropix Luciferase Assay Kit (Applied Biosystems, Bedford, USA, Cat No. BC100L). […]

For a further experiment, the target named is rLHR (Rattus norvegicus, UniProt P16235). Briefly: Cellulase activity assay of supernatants of CK04 cells transfected with pCK71. It is filed as cell-based. The arrangement: Full-length cDNAs encoding the LHRs of rat (r) and bovine (b) origin; expressed in transfected cells; host or cells: CK04: HEK293T stably cotransfected with pLEN-rLHR and pZeoSV2(+), clone 6. Conditions: CK04 + pCK71, supernatants 48 h post-induction. On the procedure:
Cellulase activity assay performed from cell culture supernatants 48 h post-induction.
A novel bLH-responsive microcapsule degradation system was established by placing an engineered secreted version of the lytic enzyme endo-1.4-beta-glucanase gene (cellulase) under control of PCRE. […] The protein had the estimated size of 57 kDa. Additionally, the functionality of the pCK71-encoded cellulase was evaluated by performing a cellulase activity assay (FIG. 12).
Cellulase was quantified using EnzCheck® fluorescent substrate (Molecular Probes, Eugene, Oreg., USA) according to the manufacturer's protocol: 20 μl of cell culture supernatant was centrifuged at 16,000×g for one minute to remove cell debris and 15 μl of appropriate dilutions in PBS (Invitrogen, cat. no. 21600-069) were transferred to a 384-well plate containing 15 μl sodium acetate buffer (200 mM sodium acetate, pH 5.5) per well supplemented with 3 μl substrate solution. Plates were incubated at 37° C. for 30 minutes and fluorescence intensity was measured subsequently at 340 nm (excitation wavelength) and 450 nm (emission wavelength) in a Genios Pro multiwell plate reader (Tecan A G, Maennedorf, Switzerland). Absolute cellulase levels were determined by comparing the fluorescence intensities to readings of standardized solutions containing known concentrations of Aspergillus niger cellulase (Sigma, cat. no. 22178). […]

Sequence of rLHR (P16235 27-700): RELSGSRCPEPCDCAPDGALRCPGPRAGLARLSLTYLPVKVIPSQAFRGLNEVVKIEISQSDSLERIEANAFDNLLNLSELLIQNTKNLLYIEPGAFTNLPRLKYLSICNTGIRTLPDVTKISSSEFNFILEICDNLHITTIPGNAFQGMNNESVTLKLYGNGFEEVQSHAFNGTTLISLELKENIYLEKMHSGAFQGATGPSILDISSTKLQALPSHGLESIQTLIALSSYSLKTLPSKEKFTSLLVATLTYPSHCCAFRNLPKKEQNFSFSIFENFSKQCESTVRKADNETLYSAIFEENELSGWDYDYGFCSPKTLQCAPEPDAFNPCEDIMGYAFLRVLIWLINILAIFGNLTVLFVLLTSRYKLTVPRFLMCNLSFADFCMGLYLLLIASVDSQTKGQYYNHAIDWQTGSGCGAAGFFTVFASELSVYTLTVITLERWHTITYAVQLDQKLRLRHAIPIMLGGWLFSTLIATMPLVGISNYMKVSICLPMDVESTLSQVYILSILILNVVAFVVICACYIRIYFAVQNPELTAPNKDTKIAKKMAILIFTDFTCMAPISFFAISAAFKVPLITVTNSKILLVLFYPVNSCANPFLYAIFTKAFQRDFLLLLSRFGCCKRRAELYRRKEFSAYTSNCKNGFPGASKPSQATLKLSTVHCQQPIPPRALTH
T1 sequence (P16235 27-700): as above

As to bovine luteinizing hormone [bLH], the “increase in intracellular cAMP” value in experiment [1] was 29 fold. Besides, the “bLH-dependent increase in cellulase activity” value on rLHR is 8.4±0.2 fold.
